Results on 2 compounds are retold here after PMC5740388, “In Vitro Antibacterial Properties of Cefiderocol, a Novel Siderophore Cephalosporin, against Gram-Negative Bacteria” (Antimicrobial Agents and Chemotherapy, 2017).

The test system of test [1] is T1, PBP1a and PBP1b of A. baumannii ATCC 17978 (not separated).
T1 construct: gene ponA; one joint IC50 for PBP1a and PBP1b
The test is described as follows: competition with Bocillin FL for PBPs. The test is classed as binding, Acinetobacter baumannii. The following applies: covalent; joint value for PBP1a and PBP1b. From the text:
competition with Bocillin FL for PBPs on PBP1a and PBP1b of A. baumannii ATCC 17978 (not separated)

For test [2], the target named is T2, PBP4 of K. pneumoniae SR22291 (Klebsiella pneumoniae, UniProt A6TEK1).
T2 construct: gene dacB
T2 sequence (A6TEK1 21-477): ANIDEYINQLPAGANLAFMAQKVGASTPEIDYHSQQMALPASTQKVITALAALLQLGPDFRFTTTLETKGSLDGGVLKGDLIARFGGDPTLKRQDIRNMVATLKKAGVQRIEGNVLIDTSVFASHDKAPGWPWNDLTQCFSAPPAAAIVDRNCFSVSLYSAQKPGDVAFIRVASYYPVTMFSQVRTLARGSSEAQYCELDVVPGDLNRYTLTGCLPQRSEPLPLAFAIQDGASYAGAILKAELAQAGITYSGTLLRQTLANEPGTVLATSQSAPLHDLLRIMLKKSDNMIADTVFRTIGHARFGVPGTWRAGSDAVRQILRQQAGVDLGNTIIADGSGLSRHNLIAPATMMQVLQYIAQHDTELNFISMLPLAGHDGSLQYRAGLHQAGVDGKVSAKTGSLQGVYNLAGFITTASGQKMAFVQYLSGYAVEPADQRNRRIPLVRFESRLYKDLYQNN
The test is described as follows: competition with […]benzylpenicillin for PBPs. The following applies: covalent. The test is classed as binding.

Test [3] concerns the target T3, PBP1b of K. pneumoniae SR22291 (Klebsiella pneumoniae, UniProt A0ACD7TXF1).
T3 construct: gene mrcB
T3 sequence (A0ACD7TXF1 1-850): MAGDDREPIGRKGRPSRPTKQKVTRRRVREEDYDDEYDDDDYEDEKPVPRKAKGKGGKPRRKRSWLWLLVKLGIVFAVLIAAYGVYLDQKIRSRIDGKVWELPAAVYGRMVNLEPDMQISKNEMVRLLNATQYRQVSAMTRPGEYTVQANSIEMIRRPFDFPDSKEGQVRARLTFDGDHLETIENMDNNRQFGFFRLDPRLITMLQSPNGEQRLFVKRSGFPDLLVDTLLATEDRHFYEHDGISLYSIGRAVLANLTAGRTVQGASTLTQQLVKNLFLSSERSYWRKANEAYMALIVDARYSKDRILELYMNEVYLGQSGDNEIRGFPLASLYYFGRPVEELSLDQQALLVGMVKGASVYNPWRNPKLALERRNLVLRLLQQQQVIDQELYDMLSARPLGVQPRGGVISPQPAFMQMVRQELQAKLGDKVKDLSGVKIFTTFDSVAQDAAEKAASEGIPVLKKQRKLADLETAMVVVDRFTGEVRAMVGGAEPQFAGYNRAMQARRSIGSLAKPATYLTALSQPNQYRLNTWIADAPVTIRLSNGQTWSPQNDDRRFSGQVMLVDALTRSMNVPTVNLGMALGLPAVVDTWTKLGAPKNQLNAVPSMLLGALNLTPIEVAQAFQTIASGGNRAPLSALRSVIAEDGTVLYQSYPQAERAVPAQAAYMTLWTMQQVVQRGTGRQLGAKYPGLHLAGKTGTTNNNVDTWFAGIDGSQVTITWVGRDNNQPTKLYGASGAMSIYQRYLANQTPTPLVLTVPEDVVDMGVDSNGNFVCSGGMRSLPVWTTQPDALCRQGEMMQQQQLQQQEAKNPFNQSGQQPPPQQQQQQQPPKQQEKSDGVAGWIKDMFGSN
The test is described as follows: competition with […]benzylpenicillin for PBPs. The test is classed as binding. The note with it: covalent.

For test [4], the target named is T4, PBP3 of K. pneumoniae SR22291 (Klebsiella pneumoniae, UniProt A0A0H3GN85).
T4 construct: gene ftsI
T4 sequence (A0A0H3GN85 1-588): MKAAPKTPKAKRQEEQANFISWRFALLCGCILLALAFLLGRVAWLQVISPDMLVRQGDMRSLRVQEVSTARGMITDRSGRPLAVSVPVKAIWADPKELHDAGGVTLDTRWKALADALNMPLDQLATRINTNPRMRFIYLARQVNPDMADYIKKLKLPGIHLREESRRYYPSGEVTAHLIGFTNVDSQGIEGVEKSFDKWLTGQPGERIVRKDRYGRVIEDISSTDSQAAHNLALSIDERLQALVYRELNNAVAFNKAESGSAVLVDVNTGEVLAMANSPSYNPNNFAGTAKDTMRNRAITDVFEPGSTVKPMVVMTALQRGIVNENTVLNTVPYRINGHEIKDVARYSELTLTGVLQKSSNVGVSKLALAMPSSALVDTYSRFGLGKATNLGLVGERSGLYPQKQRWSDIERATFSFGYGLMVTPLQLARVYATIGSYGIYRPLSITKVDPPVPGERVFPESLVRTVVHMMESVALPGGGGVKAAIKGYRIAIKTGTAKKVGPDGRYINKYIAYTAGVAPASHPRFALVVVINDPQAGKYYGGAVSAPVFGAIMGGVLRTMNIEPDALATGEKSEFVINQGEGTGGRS
The test is described as follows: competition with […]benzylpenicillin for PBPs. The test is classed as binding. The following applies: covalent.

Test [5] deals with T5, PBP3 of A. baumannii ATCC 17978 (Acinetobacter baumannii, UniProt A0ABX6CK25).
T5 construct: gene ftsI
T5 sequence (A0ABX6CK25 1-610): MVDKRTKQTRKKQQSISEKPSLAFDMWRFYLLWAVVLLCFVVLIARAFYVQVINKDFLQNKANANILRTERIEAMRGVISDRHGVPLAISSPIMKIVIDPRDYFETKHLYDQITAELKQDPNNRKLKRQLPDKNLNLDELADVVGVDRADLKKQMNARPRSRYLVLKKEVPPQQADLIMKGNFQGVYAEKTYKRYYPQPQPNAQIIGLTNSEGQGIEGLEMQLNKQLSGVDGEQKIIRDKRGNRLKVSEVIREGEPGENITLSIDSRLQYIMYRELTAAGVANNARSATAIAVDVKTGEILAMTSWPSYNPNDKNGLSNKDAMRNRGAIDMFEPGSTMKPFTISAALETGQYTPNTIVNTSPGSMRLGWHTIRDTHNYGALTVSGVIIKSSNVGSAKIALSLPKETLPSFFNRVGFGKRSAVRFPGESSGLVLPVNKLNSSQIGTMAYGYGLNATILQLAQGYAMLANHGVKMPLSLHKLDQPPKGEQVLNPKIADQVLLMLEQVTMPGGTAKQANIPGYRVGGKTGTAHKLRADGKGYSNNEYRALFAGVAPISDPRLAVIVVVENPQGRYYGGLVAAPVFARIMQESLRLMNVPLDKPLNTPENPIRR
Description: competition with Bocillin FL for PBPs. The test is classed as binding. The following applies: covalent. From the text: competition with Bocillin FL for PBPs on PBP3 of A. baumannii ATCC 17978

Where [6] appears, read: read-out: IC50 (μg/ml) / K. pneumoniae SR22291 / Cefiderocol (converted).
[7] abbreviates: read-out: IC50 (μg/ml) / K. pneumoniae SR22291 / Ceftazidime (converted).

In brackets after ≈: the same amount, converted by molar mass. Like-named read-outs stand apart in the source and are kept apart here.

With `CC(C)(O/N=C(\C(=O)N[C@@H]1C(=O)N2C(C(=O)[O-])=C(C[N+]3(CCNC(=O)c4ccc(O)c(O)c4Cl)CCCC3)CS[C@H]12)c1csc(N)n1)C(=O)O` [cefiderocol], in test [1], the “IC50 (μg/ml) / A. baumannii ATCC 17978 ^a / Cefiderocol” value amounted to 1.05 µg/mL (≈ 1.4 µM). Also, the IC50 was 372 nM in test [2] (setting [6]), 4650 nM in test [3] (setting [6]), 82.4 nM in test [4] (setting [6]) and 891 nM in test [5] (read-out: IC50 (μg/ml) / A. baumannii ATCC 17978 ^a / Cefiderocol (converted)).
For the compound `CC(C)(O/N=C(\C(=O)N[C@@H]1C(=O)N2C(C(=O)[O-])=C(C[n+]3ccccc3)CS[C@H]12)c1csc(N)n1)C(=O)O` [ceftazidime], in test [1], the “IC50 (μg/ml) / A. baumannii ATCC 17978 ^a / Ceftazidime” value came out at 0.91 µg/mL (≈ 1.66 µM). The IC50 was 6590 nM in test [2] (setting [7]), 4210 nM in test [3] (setting [7]), 402 nM in test [4] (setting [7]) and 3260 nM in test [5] (read-out: IC50 (μg/ml) / A. baumannii ATCC 17978 ^a / Ceftazidime (converted)).
